# Measured values reported in patent US20260262643A1, “HERBICIDAL BENZOXAZINES” (FMC CORPORATION, priority 2022, published 2026).
# Experiments:
# green foxtail [1] = test: Test C postemergence; type: in vivo, Setaria viridis; conditions: 10 days, 0 to 100 scale (0 no effect, 100 complete control)
# Method in brief: (§1)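 Pre: seeds in loam/sand, directed soil spray. Post: 1–2 leaf plants, 2–10 cm. Cmpd in non-phytotoxic solvent + surfactant. Greenhouse 10 d; visual rating vs untreated, 0 = none, 100 = complete control.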
# corn [2] = test: Test C postemergence; type: in vivo, Zea mays; conditions: 10 days, 0 to 100 scale (0 no effect, 100 complete control)
# Method in brief: as §1
# blackgrass [3] = test: Test C preemergence; type: in vivo, Alopecurus myosuroides
# Method in brief: as §1
# rice = test: Test D flooded paddy test; type: in vivo, Oryza sativa; conditions: 250 g ai/ha, applied to paddy water, visual rating after 13 to 14 days, scale 0 to 100 (0 no effect, 100 complete control)
# Method in brief: (§2)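 Compounds go straight into paddy water over 2-leaf plants in pots flooded to 3 cm. Greenhouse holding lasts 13 to 14 days. Injury is scored by eye against controls from 0 (none) to 100 (complete control).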
# pigweed, palmer [4] = test: Test C postemergence; type: in vivo, Amaranthus palmeri; conditions: 10 days, 0 to 100 scale (0 no effect, 100 complete control)
# Method in brief: as §1
# ragweed [5] = test: Test C postemergence; type: in vivo, Ambrosia artemisiifolia; conditions: 10 days, 0 to 100 scale (0 no effect, 100 complete control)
# Method in brief: as §1
# soybean [6] = test: Test C preemergence; type: in vivo, Glycine max
# Method in brief: as §1
# horseweed = test: Test C postemergence; type: in vivo, Erigeron canadensis; conditions: 10 days, 0 to 100 scale (0 no effect, 100 complete control)
# Method in brief: as §1
# ragweed [7] = test: Test C preemergence; type: in vivo, Ambrosia artemisiifolia
# Method in brief: as §1
# kochia [8] = test: Test C postemergence; type: in vivo, Bassia scoparia; conditions: 10 days, 0 to 100 scale (0 no effect, 100 complete control)
# Method in brief: as §1
# oat, wild [9] = test: Test C postemergence; type: in vivo, Avena fatua; conditions: 10 days, 0 to 100 scale (0 no effect, 100 complete control)
# Method in brief: as §1
# blackgrass [10] = test: Test C postemergence; type: in vivo, Alopecurus myosuroides; conditions: 10 days, 0 to 100 scale (0 no effect, 100 complete control)
# Method in brief: as §1
# corn [11] = test: Test C preemergence; type: in vivo, Zea mays
# Method in brief: as §1
# sedge, umbrella = test: Test D flooded paddy test; type: in vivo, Cyperus difformis; conditions: 250 g ai/ha, applied to paddy water, visual rating after 13 to 14 days, scale 0 to 100 (0 no effect, 100 complete control)
# Method in brief: as §2
# galium = test: Test C postemergence; type: in vivo, Galium aparine; conditions: 10 days, 0 to 100 scale (0 no effect, 100 complete control)
# Method in brief: as §1
# barnyardgrass [12] = test: Test C postemergence; type: in vivo, Echinochloa crusgalli; conditions: 10 days, 0 to 100 scale (0 no effect, 100 complete control)
# Method in brief: as §1
# green foxtail [13] = test: Test C preemergence; type: in vivo, Setaria viridis
# Method in brief: as §1
# oat, wild [14] = test: Test C preemergence; type: in vivo, Avena fatua
# Method in brief: as §1
# barnyardgrass [15] = test: Test D flooded paddy test; type: in vivo, Echinochloa crus-galli; conditions: 250 g ai/ha, applied to paddy water, visual rating after 13 to 14 days, scale 0 to 100 (0 no effect, 100 complete control)
# Method in brief: as §2
# ryegrass, Italian [16] = test: Test C preemergence; type: in vivo, Lolium multiflorum
# Method in brief: as §1
# kochia [17] = test: Test C preemergence; type: in vivo, Bassia scoparia
# Method in brief: as §1
# barnyardgrass [18] = test: Test C preemergence; type: in vivo, Echinochloa crusgalli
# Method in brief: as §1
# wheat [19] = test: Test C postemergence; type: in vivo, Triticum aestivum; conditions: 10 days, 0 to 100 scale (0 no effect, 100 complete control)
# Method in brief: as §1
# ducksalad = test: Test D flooded paddy test; type: in vivo, Heteranthera limosa; conditions: 250 g ai/ha, applied to paddy water, visual rating after 13 to 14 days, scale 0 to 100 (0 no effect, 100 complete control)
# Method in brief: as §2
# pigweed, palmer [20] = test: Test C preemergence; type: in vivo, Amaranthus palmeri
# Method in brief: as §1
# wheat [21] = test: Test C preemergence; type: in vivo, Triticum aestivum
# Method in brief: as §1
# ryegrass, Italian [22] = test: Test C postemergence; type: in vivo, Lolium multiflorum; conditions: 10 days, 0 to 100 scale (0 no effect, 100 complete control)
# Method in brief: as §1
# soybean [23] = test: Test C postemergence; type: in vivo, Glycine max; conditions: 10 days, 0 to 100 scale (0 no effect, 100 complete control)
# Method in brief: as §1
# [24] = 500 g ai/ha, preemergence, 0 to 100 scale (0 no effect, 100 complete control)
# [25] = Preemergence, 125 g ai/ha, 0 to 100 scale, 0 no effect, 100 complete control
smiles,measurement,setting,value
Cc1ccc(-n2cnc(C(C)(C)C)n2)cc1C(=O)N1CC(C(F)(F)F)Oc2c(Cl)cccc21 (stereo not shown) [Compound 350],"Plant response rating, Foxtail, Green","green foxtail [1]; 500 g ai/ha, postemergence",80
same,"Plant response rating, Foxtail, Green","green foxtail [1]; Postemergence, 125 g ai/ha",30
same,"Plant response rating, Corn","corn [2]; 500 g ai/ha, postemergence",20
same,"Plant response rating, Corn","corn [2]; Postemergence, 125 g ai/ha",10
same,Blackgrass plant response rating,blackgrass [3]; [24],50
same,"Plant response rating, Blackgrass",blackgrass [3]; [25],20
same,"Plant response rating, Rice (Flood)",rice,0
same,"Plant response rating, Pigweed, Palmer","pigweed, palmer [4]; 500 g ai/ha, postemergence",100
same,"Plant response rating, Pigweed, Palmer","pigweed, palmer [4]; Postemergence, 125 g ai/ha",100
same,"Plant response rating, Ragweed","ragweed [5]; 500 g ai/ha, postemergence",50
same,"Plant response rating, Ragweed","ragweed [5]; Postemergence, 125 g ai/ha",30
same,Soybean plant response rating,soybean [6]; [24],90
same,"Plant response rating, Soybean",soybean [6]; [25],90
same,"Plant response rating, Horseweed","horseweed; 500 g ai/ha, postemergence",40
same,"Plant response rating, Horseweed","horseweed; Postemergence, 125 g ai/ha",40
same,Ragweed plant response rating,ragweed [7]; [24],60
same,"Plant response rating, Ragweed",ragweed [7]; [25],20
same,"Plant response rating, Kochia","kochia [8]; 500 g ai/ha, postemergence",90
same,"Plant response rating, Kochia","kochia [8]; Postemergence, 125 g ai/ha",70
same,"Plant response rating, Oat, Wild","oat, wild [9]; 500 g ai/ha, postemergence",10
same,"Plant response rating, Oat, Wild","oat, wild [9]; Postemergence, 125 g ai/ha",0
same,"Plant response rating, Blackgrass","blackgrass [10]; 500 g ai/ha, postemergence",20
same,"Plant response rating, Blackgrass","blackgrass [10]; Postemergence, 125 g ai/ha",10
same,Corn plant response rating,corn [11]; [24],0
same,"Plant response rating, Corn",corn [11]; [25],0
same,"Plant response rating, Sedge, Umbrella (Flood)","sedge, umbrella",0
same,"Plant response rating, Galium","galium; 500 g ai/ha, postemergence",100
same,"Plant response rating, Galium","galium; Postemergence, 125 g ai/ha",80
same,"Plant response rating, Barnyardgrass","barnyardgrass [12]; 500 g ai/ha, postemergence",30
same,"Plant response rating, Barnyardgrass","barnyardgrass [12]; Postemergence, 125 g ai/ha",10
same,"Foxtail, Green plant response rating",green foxtail [13]; [24],100
same,"Plant response rating, Foxtail, Green",green foxtail [13]; [25],100
same,"Oat, Wild plant response rating","oat, wild [14]; [24]",50
same,"Plant response rating, Oat, Wild","oat, wild [14]; [25]",30
same,"Plant response rating, Barnyardgrass (Flood)",barnyardgrass [15],0
same,"Ryegrass, Italian plant response rating","ryegrass, Italian [16]; [24]",100
same,"Plant response rating, Ryegrass, Italian","ryegrass, Italian [16]; [25]",100
same,Kochia plant response rating,kochia [17]; [24],80
same,"Plant response rating, Kochia",kochia [17]; [25],50
same,Barnyardgrass plant response rating,barnyardgrass [18]; [24],100
same,"Plant response rating, Barnyardgrass",barnyardgrass [18]; [25],50
same,"Plant response rating, Wheat","wheat [19]; 500 g ai/ha, postemergence",10
same,"Plant response rating, Wheat","wheat [19]; Postemergence, 125 g ai/ha",10
same,"Plant response rating, Ducksalad (Flood)",ducksalad,0
same,"Pigweed, Palmer plant response rating","pigweed, palmer [20]; [24]",100
same,"Plant response rating, Pigweed, Palmer","pigweed, palmer [20]; [25]",100
same,Wheat plant response rating,wheat [21]; [24],30
same,"Plant response rating, Wheat",wheat [21]; [25],30
same,"Plant response rating, Ryegrass, Italian","ryegrass, Italian [22]; 500 g ai/ha, postemergence",30
same,"Plant response rating, Ryegrass, Italian","ryegrass, Italian [22]; Postemergence, 125 g ai/ha",10
same,"Plant response rating, Soybean","soybean [23]; 500 g ai/ha, postemergence",100
same,"Plant response rating, Soybean","soybean [23]; Postemergence, 125 g ai/ha",100
